Results published in US6610653B1, “Therapeutic preparation for inhalation” (priority 1994, dated 2003).

Legend:
[1] = Selection of enhancers: inhaled insulin/enhancer powder in rat model, blood glucose levels; format: in vivo; conditions: for Effect (decrease in blood glucose level): rat, inhalation; for usefulness as enhancer of insulin absorption in the lung: tested as enhancer in the method of the invention, rat model; on Effect (decrease in blood glucose level): key: +: significant decrease in blood glucose level; (+): moderate decrease in blood glucose level; −: no or very small decrease in blood glucose level
Experimental: Each of the compounds listed in Table III was tested for its ability to enhance uptake of insulin, and thus affect blood glucose levels, in a rat model. Various forms of insulin were employed: recombinant or semisynthetic human or bovine. […] The powder was administered to rats by inhalation, and the blood glucose levels of the rats were subsequently monitored. These levels were compared to the corresponding values obtained from rats which had inhaled insulin formulations without enhancer.

CaCo-2 cell monolayer = experiment: In vitro CaCo-2 epithelial cell monolayer transport assay; format: in vitro ADME
Excerpt: A standard in vitro assay utilizing an epithelial cell line, CaCo-2 (available through the American Type Culture Collection (ATCC), Rockville, Md., USA), has been developed to assess the ability of various enhancer compounds to promote transport of insulin and other markers across an epithelial cell monolayer, as a model for the epithelial cell layer which functions in the lung to separate the alveolus from the pulmonary blood supply. In this assay, the enhancer and insulin or other marker are dissolved in aqueous solution at various proportions and/or concentrations, and applied to the apical side of the cell monolayer. After 60 min incubation at 37° C. and 95% RH (relative humidity), the amount of the marker on the basolateral side of the cells is determined: for example, by use of a radioactively labelled marker. […] This concentration of sodium caprate (16 mM) was also found to promote absorption of insulin across the cell monolayer. The amount of insulin which passed across the monolayer doubled in the presence of 16 mM sodium caprate, compared to the amount in the absence of any enhancer. It is expected that at higher concentrations of sodium caprate, the permeability of the cells will be further increased; however, the potential cytotoxicity of sodium caprate may prevent the use of substantially higher concentrations of this particular enhancer.

[2] = Insulin combined with sodium caprate in various w/w proportions, in vivo models
Excerpt: In general, it is desirable to keep the ratio of insulin to enhancer as high as possible, within the range that permits fast and efficient enhancement of insulin absorption. This is important in order to minimize the risk of adverse effects, both local and systemic, attributable to the enhancer. The optimal ratio of insulin to enhancer can be ascertained for any given enhancer by testing various proportions in in vivo models such as described herein. For example, insulin was combined with sodium caprate in the following w/w proportions: 50/50, 75/25, 82.5/17.5, and 90/10. […] Other enhancers may have higher or lower optimal concentrations relative to insulin, and each individual enhancer must therefore be separately tested.

[3] = Enhancer:Insulin:lactose 4:4:92
[4] = Enhancer:Insulin:lactose 2:4:94
[5] = Enhancer:Insulin:lactose 25:75:0

| Compound | Effect (decrease in blood glucose level) [1, 3] | usefulness as enhancer of insulin absorption in the lung [1] | further results |
| --- | --- | --- | --- |
| C[C@H](CCC(=O)NCC(=O)[O-])[C@H]1CC[C@H]2[C@@H]3[C@H](O)C[C@@H]4C[C@H](O)CC[C@]4(C)[C@H]3C[C@H](O)[C@]12C.[Na+] [Sodium glycocholate] | + | effectively enhance insulin absorption in the lung |  |
| Dimethyl-β-cyclodextrin |  | absorption enhancing effect | Effect (decrease in blood glucose level) ([1]; Enhancer:Insulin:lactose 75:25:0): + |
| CCCCCCCC/C=C\CCCCCCCC(=O)[O-].[K+] [Potassium oleate] | + |  |  |
| Lysine caprate |  | effective | Effect (decrease in blood glucose level) ([1]; Enhancer:Insulin:lactose 35:65:0): + |
| CCCCCCCC(=O)OCC(COP(=O)([O-])OCC[N+](C)(C)C)OC(=O)CCCCCCC (stereo not shown) [Dioctanoylphosphatidylcholine] |  |  | Effect (decrease in blood glucose level) [1, 4]: (+) |
| Lysophosphatidylcholine | + | effective enhancer |  |
| CCCCCCCC(=O)[O-].[Na+] [Sodium caprylate] |  |  | Effect (decrease in blood glucose level) [1, 5]: + |
| C[C@H](CCC(=O)[O-])[C@H]1CC[C@H]2[C@@H]3[C@@H](O)C[C@@H]4C[C@H](O)CC[C@]4(C)[C@H]3CC[C@]12C.[Na+] [Sodium ursodeoxycholate] | + | effectively enhance insulin absorption in the lung |  |
| CC(=O)OC1CC2(C)C(CC(O)C3C4(C)CCC(O)C(C)C4CCC32C)C1=C(CCCC(C)C)C(=O)NCCS(=O)(=O)O (stereo not shown) [Sodium taurodihydrofusidate] |  | effectively enhance insulin absorption in the lung | Effect (decrease in blood glucose level) [1, 4]: + |
| sodium salt of ethylenediaminetetraacetic acid |  | ineffective |  |
| C[C@H](CCC(=O)NCCS(=O)(=O)O)[C@H]1CC[C@H]2[C@@H]3[C@H](O)C[C@@H]4C[C@H](O)CC[C@]4(C)[C@H]3C[C@H](O)[C@]12C [Sodium taurocholate] | + | effectively enhance insulin absorption in the lung |  |
| CCCCCCCCOC1O[C@H](CO)[C@@H](O)[C@H](O)[C@H]1O (stereo partly shown) [Octylglucopyranoside] | (+) | some absorption enhancing properties |  |
| CCCCCCCCCCCCCC(=O)[O-].[Na+] [Sodium myristate] |  | perform well | Effect (decrease in blood glucose level) ([1]; Enhancer:Insulin:lactose 30:70:0): + |
| CCCCCCCCCC(=O)[O-].[K+] [Potassium caprate] |  | effective | Effect (decrease in blood glucose level) ([1]; Enhancer:Insulin:lactose 27:73:0): + |
| CCCCCCCCCCCC(=O)[O-].[Na+] [Sodium laurate] |  | perform well | Effect (decrease in blood glucose level) [1, 5]: (+) |
| CCCCCCCCCC(=O)OC[C@H](COP(=O)([O-])OCC[N+](C)(C)C)OC(=O)CCCCCCCCC [Didecanoylphospatidylcholine] |  |  | Effect (decrease in blood glucose level) ([1]; Enhancer:Insulin:lactose 4:4:94): − |
| CCCCCCCCCC(=O)[O-].[Na+] [Sodium caprate] | + | perform well | amount of insulin which passed across the monolayer, compared to absence of any enhancer (CaCo-2 cell monolayer; 16 mM sodium caprate): doubled; amount of marker (mannitol) which appears on the basolateral side, insulin added (CaCo-2 cell monolayer; 60 min at 37° C., 1:3 sodium caprate:insulin by weight, FIG. 8): true even when insulin is added; amount of marker (mannitol) which appears on the basolateral side (CaCo-2 cell monolayer; 60 min at 37° C., up to 16 mM sodium caprate, FIG. 7): dependent upon the concentration of enhancer used; Effect (decrease in blood glucose level) ([1]; Enhancer:Insulin:lactose 10:90:0): (+); Effect (decrease in blood glucose level) ([1]; Enhancer:Insulin:lactose 17.5:82.5:0): (+); Effect (decrease in blood glucose level) [1, 5]: +; improvement in absorption of insulin ([2]; insulin/sodium caprate w/w 50/50 (50% sodium caprate)): Significant improvement; improvement in absorption of insulin ([2]; insulin/sodium caprate w/w 75/25 (25% sodium caprate)): Significant improvement; improvement in absorption of insulin ([2]; insulin/sodium caprate w/w 82.5/17.5 (17.5% sodium caprate)): intermediate; improvement in absorption of insulin ([2]; insulin/sodium caprate w/w 90/10 (10% sodium caprate)): poor improvement; lowest effective concentration of sodium caprate ([2]; proportion of enhancer relative solely to insulin, 'probably 20-25%'): 15-25% |
